Counter-ions that a name gives are not always drawn.
Structure (SMILES)	melting point
COc1cc(C2c3cc4c(cc3[C@@H](NC(=O)CNCCCCNCCCCNCCCCN)[C@H]3COC(=O)C23)OCO4)cc(OC)c1O (some centres unmarked) (as salt: hydrochloride)	263 °C
COc1cc(C2c3cc4c(cc3[C@@H](NC(=O)CNCCCCNCCCN)[C@H]3COC(=O)C23)OCO4)cc(OC)c1O (some centres unmarked) (as salt: hydrochloride)	197 °C

From patent US8664409B2, “Process for the preparation of (poly) aminoalkylaminoacetamide derivatives of epipodophyllotoxin useful for their applications in therapeutics as anticancer agent” (Pierre Fabre Medicament, priority 2007, dated 2014)
